The record followed here is US20220144853A1, “IMIDAZOLINE DERIVATIVES AS CXCR4 MODULATORS” (Université de Paris, priority 2019, published 2022).

pIC50: −log10 of the molar value. Structures can show the parent of a compound that is named as a salt.

Assay [1] deals with IFN production by activated immune cells (PBMC) from lupus patients. Nature of the assay: IFN production by R848-activated PBMC from lupus patients, STING-37 reporter cell line. The note with it: 10 μM, PBMC from three SLE patients, FIG. 2. The format is cell-based, human. Here is the method: (§1) Material from Juvenile Dermatomyositis and Lupus patients were obtained from Necker Hospital, Paris, France or from Imagine Institute, Paris, France. The study was approved by the Conité des Protection des Personnes (ID-RCB/EUDRACT: 2014-A01017-40 and 2018-A01358-47) in France.
(§2) In vitro experiments were performed using human peripheral blood mononuclear cells (PBMCs) isolated by density centrifugation from peripheral blood leukocyte separation medium (Cambrex, Gaithersburg, Md.).
(§3) PBMCs were cultured in RPMI 1640 (Invitrogen, Gaithersburg, Md.) (R10) containing 10% heat-inactivated fetal bovine serum, 100 U/mL Penicilium and 100 μg/mL Streptomycin (1% Pen-Strep) and 1 mM glutamine (Hyclone, Logan, Utah).
1) The PBMCs used herein were prepared as described in part A “immune cells preparation”, section 1) above. PBMCs were seeded at 2.10^6/mL. […] Cells were then stimulated with the TLR7/8 agonist resiquimod—R848 (Invivogen) at 5 μg/mL. […]
(§4) 1) To quantify the secretion of functional IFN, a biological assay based on a stable cell line where luciferase reporter gene is controlled by five Interferon-Stimulated Response Elements (STING37 cell line) was used. […] After 24 h of culture, luciferase activity was determined by adding 50 μL of Bright-Glo reagents (Promega) to culture wells and measuring bioluminescence with a luminometer.

The subject of assay [2] is IFN production by activated immune cells (PBMC). Description: IFN production by R848-activated PBMC from healthy donors, STING-37 reporter cell line. The note with it: different concentrations, R848, STING-37 reporter, FIG. 1. The format is cell-based, human. On the procedure: 1) The blood from healthy donors was obtained from two sources. Either from “Etablissement Français du Sang” (convention #07/CABANEL/106), Paris, France or from the Apheresis and Blood Donation Unit at the Institute of Transfusion Medicine and Immunogenetics (IKT), Ulm, Germany after being approved by the Institutional Review Board at Ulm University.
as §2, §3
1) The PBMCs used herein were prepared as described in part A “immune cells preparation”, section 1) above. PBMCs were seeded at 2.10^6/mL. […]
as §4

Assay [3] concerns the target T1, human CXCR4 (hCXCR4) receptor (Homo sapiens, UniProt P61073).
T1 construct: expressed in transfected cells; host or cells: HEK-293 T cells, transient co-transfection with polyethylenimine
Nature of the assay: BRET assay of antagonist activity on the CXCR4-CXCL12 signaling pathway in transfected HEK-293 T cells. The format is cell-based. To be noted: Gαi1, Gαi2, Gαi3, GαoB or Gαz, EC80 CXCL12, FIG. 6. Here is the method:
Examples of the present invention were tested for their antagonist activity on human CXCR4 (hCXCR4) receptor transiently over-expressed in HEK-293 T cells. Compounds exert antagonist activity if they decrease the action of CXCL12 on the receptor.
HEK-293 T cells are maintained in Dulbecco's Modified Eagle's Medium supplemented with 10% Foetal Calf Serum, 1% Penicillin/Streptomycin at 37° C./5% CO2. […] After transfection, cells are cultured for 48 h at 37° C./5% CO2.
On the day of the assay, cells are detached using trypsin 0.05%, resuspended in assay buffer (1.8 mM CaCl2, 1 mM MgCl2, 2.7 mM KCl, 137 mM NaCl, 0.4 mM NaH2PO4, 5.5 mM D-Glucose, 11.9 mM NaHCO3, 25 mM Hepes) and seeded in 384 well plate at a density of 20,000 cells per well.
Cells are first incubated for 10 minutes with the compound alone. Then, cells are stimulated by an EC80 CXCL12 concentration for additional 10 minutes and luminescence is recorded. […] Antagonist activity is evaluated in comparison to basal signals evoked by EC80 CXCL12 alone.
For IC50 determination, a dose-response test is performed using 20 concentrations (ranging over 6 logs) of each compound. Dose-response curves are fitted using the sigmoidal dose-response (variable slope) analysis in GraphPad Prism software (GraphPad Software) and IC50 of antagonist activity is calculated. […]
A general note: In BRET a luciferase serves as donor, and the signal depends on an acceptor being close.

For assay [4], the system named is TNFα production by monocytes (CD14+ cells). Description: Requirement of CXCR4 (siRNA knockdown or AMD3100) for the effect on TNFα production by monocytes from healthy donors. The format is cell-based, human. On the procedure: Monocytes were purified from PBMCs by positive selection with the CD14 microbeads (Miltenyi Biotec) and MACS column.
(§5) 1) The PBMCs used herein were prepared as described in part A “immune cells preparation”, section 1) above. PBMCs were seeded at 2.10^6/mL. […] Cells were then stimulated with the TLR7/8 agonist resiquimod—R848 (Invivogen) at 5 μg/mL. When stated, AMD (20 μM) (Sigma-Aldrich, MO, USA) was added to the cells 1 h before incubation with example 1.
Isolated monocytes were seeded at 10^5 cells/100 μL in 96-well plates and incubated at 37° C. Cyclophilin B (control) and CXCR4 small interfering RNA (siRNA) (Smart Pool, Dharmarcon) was diluted in DOTAP (Roche Applied Sciences). The mix was gently mixed and incubated at room temperature for 15 minutes. After incubation, the mix was added to cells in culture at a final concentration of 160 nM. Finally, cells were incubated at 37° C. for 24 hours before stimulation.
R848-stimulated PBMCs were washed in PBS and then incubated with a viability stain (Zombie-Aqua, Biolegend) for 30 min at 4° C. After washing, the cells were resuspended in PBS containing 2% FCS and 2 mM EDTA and stained with the extracellular mix using APC-anti-BDCA4 (clone 12C2), FITC-anti-CD123 (clone 6H6), PerCP.cy5.5-anti-CD56 (clone 5.1H11), BV421-anti-HLADR (clone L243), PE.cy7-anti-CD19 (clone 4G7), APC-cy.7-anti-CD14 (clone M5E2) all from Biolegend and used at 1/200 and V500-anti-CD3 (BD Bioscience, clone SP34-2, 1/200). For the TNFα intracellular staining a Fixation/Permeabilization Solution Kit (BD Cytofix/Cytoperm) was used according to the manufacturer's protocol. Briefly, the cells were fixed for 10 min at 4° C. with 100 μL of the Fixation/Permeabilization solution then washed and stained in 100 μL of the BD Perm/Wash Buffer containing TNFα-APC (Miltenyi, 1/500) antibody for 1 h at 4° C. Data acquisition was performed on a Canto II flow cytometer using Diva software (BD Biosciences, San Jose, Calif.). FlowJo software (Treestar, Ashland, Oreg.) was used to analyze data.

For assay [5] the test system is unchanged. Nature of the assay: TNFα production by monocytes from juvenile dermatomyositis patients, intracellular staining by flow cytometry. Format: cell-based, human. The note with it: PBMCs from 2 juvenile dermatomyositis patients; R848 overnight; FIG. 3. Here is the method:
as §1, §2, §5
R848-stimulated PBMCs were washed in PBS and then incubated with a viability stain (Zombie-Aqua, Biolegend) for 30 min at 4° C. After washing, the cells were resuspended in PBS containing 2% FCS and 2 mM EDTA and stained with the extracellular mix using APC-anti-BDCA4 (clone 12C2), FITC-anti-CD123 (clone 6H6), PerCP.cy5.5-anti-CD56 (clone 5.1H11), BV421-anti-HLADR (clone L243), PE.cy7-anti-CD19 (clone 4G7), APC-cy.7-anti-CD14 (clone M5E2) all from Biolegend and used at 1/200 and V500-anti-CD3 (BD Bioscience, clone SP34-2, 1/200). […]
(In general: A flow cytometer gives signals particle by particle.)

Assay [6] has as its system MCP-1, IL-6, IL-8 and IL-33. Nature of the assay: Cytokine production by R848-activated PBMCs, LEGENDplex: other inflammatory cytokines. The format is cell-based, human. The note with it: PBMCs from two healthy donors; R848 5 μg/mL. On the procedure: (§6) 2) The PBMCs used herein were prepared as described in part A “immune cells preparation”, section 2) above. PBMCs were seeded at 4.10^6/mL. […] Cells were then stimulated with the TLR7/8 agonist resiquimod—R848 (Sigma-Aldrich, MO, USA) at 5 μg/mL.
(§7) Cytokine expression levels were assessed using LEGENDplex Human inflammation panel 1 Kit (BioLegend, California, USA), which is a bead-based multiplex assay, using fluorescence-encoded beads. […] First, supernatants of R848-stimulated PBMCs were harvested after 24 h of stimulation and frozen at −20° C. for storage. Supernatants were dispensed into a 96-well V-bottom plate. Protocol pursued as per manufacturer recommendations (Manual for BioLegend LEGENDplex, Multi-Analyte Flow Assay Kit, Human Inflammation Panel 1, version 750000393_R01).

Assay [7] has as its system IFN production by activated PBMCs. Nature of the assay: IFN production by R848-activated PBMCs from healthy donors, twINNE reporter cell line. The format is cell-based, human. To be noted: means of two results over 2 healthy donors, R848 5 μg/mL, IT1t: mean over all experiments, read-out: IC50 of anti-inflammatory activity (IFN production). The method in brief:
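Human PBMCs (4.10^6/mL, RPMI/10% FBS, 37° C) stimulated with R848 at 5 μg/mL; supernatants collected after 24 h. Functional IFN measured on twINNE cells (ISRE-driven luciferase reporter) after 24 h culture by bioluminescence; IC50 from variable-slope dose-response fits.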

A further assay concerns TNF-α. Nature of the assay: Cytokine production by R848-activated PBMCs, LEGENDplex Human Inflammation panel 1: TNF-α. The format is cell-based. To be noted: PBMCs from 2 healthy donors, R848 overnight. On the procedure:
as §6, §7

The next assay has as its system IL-12p70. Description: Cytokine production by R848-activated PBMCs, LEGENDplex Human Inflammation panel 1: IL-12p70. The note with it: PBMCs from 2 healthy donors, R848 overnight. Format: cell-based. On the procedure:
as §6, §7

A further assay deals with IL-18. Description: Cytokine production by R848-activated PBMCs, LEGENDplex Human Inflammation panel 1: IL-18. The note with it: PBMCs from 2 healthy donors, R848 overnight. The format is cell-based. On the procedure: as §6, §7
The test system of the next assay is IL-1β. Nature of the assay: Cytokine production by R848-activated PBMCs, LEGENDplex Human Inflammation panel 1: IL-1β. Format: cell-based. To be noted: PBMCs from 2 healthy donors, R848 overnight, read-out: IC50 (μM) 1L-1β. On the procedure:
as §6, §7

Another assay concerns IL-23. Nature of the assay: Cytokine production by R848-activated PBMCs, LEGENDplex Human Inflammation panel 1: IL-23. The format is cell-based. To be noted: PBMCs from 2 healthy donors, R848 overnight. Here is the method:
as §6, §7

The next assay relates to IL-10. Description: Cytokine production by R848-activated PBMCs, LEGENDplex Human Inflammation panel 1: IL-10. Format: cell-based. To be noted: PBMCs from 2 healthy donors, R848 overnight. On the procedure: as §6, §7
In another assay the test system is IFN-γ. Nature of the assay: Cytokine production by R848-activated PBMCs, LEGENDplex Human Inflammation panel 1: IFN-γ. Format: cell-based. The note with it: PBMCs from 2 healthy donors, R848 overnight. On the procedure: as §6, §7

T1 sequence (P61073 whole entry): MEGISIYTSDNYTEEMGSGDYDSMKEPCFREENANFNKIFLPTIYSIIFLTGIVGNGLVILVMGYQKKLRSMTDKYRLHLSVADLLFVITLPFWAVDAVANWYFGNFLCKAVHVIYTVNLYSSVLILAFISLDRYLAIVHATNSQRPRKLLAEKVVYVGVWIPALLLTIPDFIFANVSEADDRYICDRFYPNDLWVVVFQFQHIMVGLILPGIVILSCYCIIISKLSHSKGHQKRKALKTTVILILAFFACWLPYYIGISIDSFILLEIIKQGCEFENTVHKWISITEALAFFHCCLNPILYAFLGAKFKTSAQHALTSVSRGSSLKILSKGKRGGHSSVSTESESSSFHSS

Take `CC1(C)CN2C(CSC3=NC4CCCCC4N3)=CSC2=N1` (stereo not drawn) [Example 1, 3-(((3a,4,5,6,7,7a-hexahydro-1H-benzo[d]imidazol-2-yl)thio)methyl)-6,6-dimethyl-5,6-dihydroimidazo[2,1-b]thiazole dihydrochloride]: in assay [1], the “IFN production by activated PBMCs” value was “level similar to the one of unstimulated negative controls”. Besides, the “reduction of IFN production by activated PBMCs” value in assay [2] stood at 100%. Also, the “antagonist activity: recruitment of G proteins induced by the hCXCR4-CXCL12 interaction” value in assay [3] is “significantly lower than IT1t”. Further, the “TNFα production by activated monocytes in the presence of the example after pre-incubation with AMD3100” value in assay [4] (AMD3100 20 μM 1 h, example 1 5 μM or example 2 1 μM, R848, FIG. 5B) is recorded as “restored”. The “TNFα production by activated monocytes in the presence of the example after CXCR4 siRNA” value in assay [4] (siCXCR4 160 nM 24 h, example 1 5 μM, R848, FIG. 5A) was “restored”. For the same compound, the “TNF-α production in CD14+ monocytes” value in [5] is “strongly inhibited”.

The term pIC50 denotes −log10 of the IC50, conventionally taken in molar units. For orientation: IC50 means the concentration that gives 50% inhibition. Take `CC1(C)CN2C(CSC(=NC3CCCCC3)NC3CCCCC3)=CSC2=N1` [IT1t, reference compound]: in assay [6], the “inhibition on other inflammatory cytokines such as MCP-1, IL-6, IL-8 and IL-33” value is recorded as “no or poor inhibition”. In [7], the pIC50 is 4.51. Also, the IC50 was determined as 48 µM in the assay with TNF-α; 16 µM in the assay on IL-12p70; 9.7 µM in the assay on IL-18; 38 µM in the assay with IL-1β; 14 µM in the assay with IL-23; 20 µM in the assay on IL-10. This compound also came in with a 50% inhibitory concentration (IC50) in the assay on IFN-γ of 24 µM.
